Experimental data: patent US4216221A, “1,3-Disubstituted (2-thio)ureas” (U C B, Societe Anonyme, priority 1977, dated 1980)
Like-named read-outs stand apart in the source and are kept apart here.

Assays:
[1] = Toxicity by intraperitoneal administration (Irwin's test); type: in vivo; details: for Dose mg/kg (dose which brings about the death of one animal out of eight in Irwin's test): mouse
Text: The compounds tested have a remarkably low toxicity.
*Dose which brings about the death of one animal out of eight in Irwin's
test (S. IRWIN, Gordon Research Conference on Medicinal Chemistry, Colby
Junior College, New London, 1959).

[2] = spinal fixation time (spinal section 35 minutes after onset of asymmetry); type: in vivo, rat; details: ip; for responders at 320 µM, 320 µmol/kg: 35 min
Text: (b) The action on mnemic processes is also shown by the reduction of the spinal fixation time, a test which has been described in literature (T. J. CHAMBERLAIN et al., J.Neuro-Physiol.26, (1963,no. 4), 662-673; C. GIURGEA and F. MOURAVIEFF-LESUISSE, Arch.Int.Pharmacodyn.Therap.191, (1971,no. 2), 279) as an elementary memory model and which provides pharmacological reactivity in good correlation with clinical physiopathology. In the rat, after unilateral lesion of the cerebellum, there is a postural asymmetry of the hind paws. This asymmetry may persist, even after spinal section, if the animal has passed a sufficiently long time in this position.
This time, which is called the spinal fixation time, is 45 minutes under the experimental conditions applied here.
On the other hand, if the spinal section is performed before the expiry of this period of time, for example 35 minutes after the onset of the asymmetry, the latter disappears.
No animal treated with placebos retains asymmetry under these conditions.
Inversely, any product which allows the rats to retain the asymmetry (thus effecting spinal fixation) when the spinal section is performed after 35 minutes, is considered to be active.
The compounds were all tested at a dosage of […]. The minimum active doses were not sought, except for compound No. 1 and for piracetam. […] By "number of animals" is to be understood the number of animals which responded positively to the test, in relation to the number of animals tested at the indicated dose: […]

[3] = active avoidance test (memory retention; paw withdrawal reaction threshold); type: in vivo, rat; details: for minimal effective dose: sc
Text: The pressure at which the withdrawal reaction takes place is called the reaction threshold. This threshold is expressed by the figure read on a scale graduated in cm of the apparatus used (Analgesy-meter Ugo Basile, Milan) and thus corresponds to the minimum pressure which brings about withdrawal when applied to the animal's paw.

[4] = Protection against aggressions of the hypoxic type (mortality induced by oxydipentonium chloride); type: in vivo, mice; details: Mus musculus, ip, 1 h, read-out: Proportion of survivors, Animals treated; for responders at 100 µM, 100 µmol/kg: 0.1 mM/kg, control animals 3/20 (1), 1/10 (2, 18, 26), 0/10 (14, 32)
Method: Protection against aggressions of the hypoxic type was shown by a reduction of mortality induced by a curarizer, the action time of which is short, namely oxydipentonium chloride (Brevatonal). At the doses used, this curarizer brings about respiratory depression which, in turn, gives rise to a hypoxi-hypercapnic syndrome.
A compound capable of protecting the brain during this short period of hypoxia ensures survival. The compounds are administered to groups of 10 mice one hour before the injection of the curarizer. At the same time, a control group of 10 mice received physiological salt solution before the curarizer. This test has also been developed in our laboratories (see S. LEVIS et al., Arch.Int.Pharmacodyn.Therap.93, (1953,no. 1), 46-54).

[5] = Toxicity when administered intravenously or orally (LD50); details: in vivo, rat
Text: Furthermore, in the rat, the compounds tested also have a low toxicity when administered intravenously or orally, as shown by the results given in the following Table V: […]

[6] = rat, intraperitoneal, 0.32 mM/kg, read-out: Number of animals which responded positively to the test, in relation to the number of animals tested (converted)
[7] = rat, subcutaneous, tested 24 hours later, read-out: Active dose mM/kg (minimum dose lowering the stimulus below 11 graduations; mM = millimole)
[8] = rat, subcutaneous, tested 24 hours later, read-out: Active dose mg/kg (minimum dose lowering the stimulus below 11 graduations)
[9] = mice, intraperitoneal, one hour before the curarizer, 2/10 (28)
[10] = mice, intraperitoneal, 0.32 mM/kg, one hour before the curarizer, control animals 1/10 (18), 2/10 (28), 0/10 (32, piracetam)

With `CC1C(=O)N(CNC(=O)NCN2CC(c3ccc(Cl)cc3)C(C)C2=O)CC1c1ccc(Cl)cc1` (stereo not drawn) [Compound No. 7, 1,3-bis[(4-p-chlorophenyl-3-methyl-2-oxo-pyrrolidino)methyl]-urea] the “Dose mM/kg - mouse (dose which brings about the death of one animal out of eight in Irwin's test)” value (shortened to “Dose mM/kg - mouse”) [1] was greater than 3 mM/kg, the “Dose mg/kg (dose which brings about the death of one animal out of eight in Irwin's test)” value (from here on “Dose mg/kg”) [1] was greater than 1509 mg/kg and the responders at 320 µM, 320 µmol/kg [2, 6] was 66.7%. The minimal effective dose [3, 7] was 5 µmol/kg and the minimal effective dose [3, 8] was 1.01 mg/kg.
In the case of `O=C(NCN1CCCCCC1=O)NCN1CCCCCC1=O` [Compound No. 4, 1,3-bis[(hexahydro-2-oxo-1H-azepin-1-yl)methyl]-urea], the “Dose mM/kg - mouse” value [1] was 3 mM/kg, the “Dose mg/kg” value [1] was 930 mg/kg and the responders at 320 µM, 320 µmol/kg [2, 6] was 66.7%. It also gave a minimal effective dose [3, 7] of 0.005 µmol/kg and a minimal effective dose [3, 8] of 0.0015 mg/kg.
For `CCC(CNC(=O)NCC(CC)N1CCCC1=O)N1CCCC1=O` (stereo not drawn) [compound 22], the “Dose mM/kg - mouse” value [1] was greater than 3 mM/kg, the “Dose mg/kg” value [1] was greater than 1014 mg/kg and the responders at 320 µM, 320 µmol/kg [2, 6] was 71.4%. The minimal effective dose [3, 7] was 0.02 µmol/kg and the minimal effective dose [3, 8] was 0.0067 mg/kg.
With `CC(NC(=O)NC(C)N1CCCC1=O)N1CCCC1=O` (stereo not drawn) [Compound No. 11, 1,3-bis[1-(2-oxo-pyrrolidino)ethyl]-urea] the “Dose mM/kg - mouse” value [1] was greater than 3 mM/kg, the “Dose mg/kg” value [1] was greater than 846 mg/kg and the responders at 32 µM, 32 µmol/kg ([4]; mice, intraperitoneal, 0.032 mM/kg, one hour before the curarizer, control animals 3/20 (compound 1), 1/10 (compound 11)) was 70%. It also gave a minimal effective dose [3, 7] of 0.005 µmol/kg and a minimal effective dose [3, 8] of 0.0014 mg/kg.
With `CC1CCN(CNC(=O)NCN2CCC(C)C2=O)C1=O` (stereo not drawn) [compound 34, 1,3-bis[(3-methyl-2-oxo-1-pyrrolidino)methyl]-urea] the “Dose mM/kg - mouse” value [1] was greater than 6 mM/kg, the “Dose mg/kg” value [1] was greater than 1692 mg/kg and the responders at 320 µM, 320 µmol/kg [2, 6] was 50%.
For `O=C(NCCN1CCCC1=O)NCCN1CCCC1=O` [compound 20, 1,3-bis[2-(2-oxo-pyrrolidino)ethyl]-urea], the “Dose mM/kg - mouse” value [1] was greater than 3 mM/kg, the “Dose mg/kg” value [1] was greater than 846 mg/kg and the responders at 320 µM, 320 µmol/kg [2, 6] was 42.9%. For the same compound, the minimal effective dose [3, 7] was 0.05 µmol/kg and the minimal effective dose [3, 8] was 0.014 mg/kg.
`NC(=O)CN1CCCC1=O` [piracetam, 2-oxo-1-pyrrolidineacetamide, reference compound] gave a responders at 320 µM, 320 µmol/kg [4] of 10%, a responders at 142 mg/kg [4] of 40% and a responders at 454 mg/kg ([4]; mice, intraperitoneal, 454 mg/kg (3.2 mM/kg), one hour before the curarizer, control animals 1/10) of 80%. The responders at 320 µM, 320 µmol/kg ([2]; Rattus norvegicus, read-out: Number of animals which responded positively to the test, in relation to the number of animals tested) was 55.6%, the minimal effective dose ([2]; Rattus norvegicus, read-out: Active dose mM/kg (minimum active dose)) was 320 µmol/kg and the minimal effective dose ([2]; Rattus norvegicus, read-out: Active dose mg/kg (minimum active dose)) was 45 mg/kg. It also gave an LD50 ([5]; iv, i.v., read-out: LD50 mg/kg (rat)) greater than 8000 mg/kg, an LD50 ([5]; iv, i.v., read-out: LD50 - mM/kg) greater than 56000 µmol/kg and an LD50 ([5]; po, per os, read-out: LD50 mg/kg (rat)) greater than 10000 mg/kg. For the same compound, the LD50 ([5]; po, per os, read-out: LD50 - mM/kg) was greater than 70000 µmol/kg, the minimal effective dose ([3]; Rattus norvegicus, 24 h, read-out: Active dose mM/kg (minimum dose lowering the stimulus below 11 graduations; mM = millimole)) was 2.5 µmol/kg and the minimal effective dose ([3]; Rattus norvegicus, 24 h, read-out: Active dose mg/kg (minimum dose lowering the stimulus below 11 graduations)) was 3.5 mg/kg. The degree of retention ([3]; rat, compared with control animals) was “significant degree of retention”.
In the case of `CC1CC(C)(C)N(CNC(=O)NCN2C(=O)C(C)CC2(C)C)C1=O` (stereo not drawn) [compound 18, 1,3-bis[(3,5,5-trimethyl-2-oxo-pyrrolidino)methyl]-urea], the “Dose mM/kg - mouse” value [1] was 2 mM/kg, the “Dose mg/kg” value [1] was 676.8 mg/kg and the responders at 100 µM, 100 µmol/kg [4, 9] was 20%. It also gave a responders at 320 µM, 320 µmol/kg [4, 10] of 60%.
With `O=C1CCC(c2ccc(Cl)cc2)CN1CNC(=S)NCN1CC(c2ccc(Cl)cc2)CCC1=O` (stereo not drawn) [compound 24, 1,3-bis[(5-p-chlorophenyl-2-oxo-piperidino)methyl]-2-thiourea] the “Dose mM/kg - mouse” value [1] was greater than 3 mM/kg, the “Dose mg/kg” value [1] was greater than 1039 mg/kg and the responders at 320 µM, 320 µmol/kg [2, 6] was 42.9%.
For `O=C(NCCCN1CCCC1=O)NCN1CCCC1=O` [Compound No. 2, 1-[(2-oxo-pyrrolidino)methyl]-3-[3-(2-oxo-pyrrolidino)propyl]-urea], the “Dose mM/kg - mouse” value [1] was greater than 3 mM/kg, the “Dose mg/kg” value [1] was greater than 846 mg/kg and the responders at 100 µM, 100 µmol/kg [4, 9] was 60%.
With `O=C1CCCCCN1CNC(=S)NCN1CCCC1=O` [compound 28, 1-[(hexahydro-2-oxo-1H-azepin-1-yl)methyl]-3-[(2-oxo-pyrrolidino)methyl]-2-thiourea] the “Dose mM/kg - mouse” value [1] was 3 mM/kg, the “Dose mg/kg” value [1] was 894 mg/kg and the responders at 100 µM, 100 µmol/kg [4, 9] was 20%. It also gave a responders at 320 µM, 320 µmol/kg [4, 10] of 70%.
With `CC1CCC(=O)N1CNC(=O)NCN1C(=O)CCC1C` (stereo not drawn) [Compound No. 8, 1,3-bis[(5-methyl-2-oxo-pyrrolidino)methyl]-urea] the “Dose mM/kg - mouse” value [1] was greater than 3 mM/kg, the “Dose mg/kg” value [1] was greater than 746 mg/kg and the responders at 320 µM, 320 µmol/kg [2, 6] was 57.1%. It also gave a minimal effective dose [3, 7] of 5 µmol/kg and a minimal effective dose [3, 8] of 1.41 mg/kg.
For `CCCCC1CCN(CNC(=S)NCN2CCC(CCCC)C2=O)C1=O` (stereo not drawn) [compound 26, 1,3-bis[(3-n-butyl-2-oxo-pyrrolidino)methyl]-2-thiourea], the “Dose mM/kg - mouse” value [1] was greater than 2 mM/kg, the “Dose mg/kg” value [1] was greater than 765.2 mg/kg and the responders at 100 µM, 100 µmol/kg [4, 9] was 70%.
With `O=C(NCN1CCCCCC1=O)NCN1CCCC1=O` [compound 32, 1-[(hexahydro-2-oxo-1H-azepin-1-yl)methyl]-3-[(2-oxo-pyrrolidino)methyl]-urea] the “Dose mM/kg - mouse” value [1] was greater than 3 mM/kg, the “Dose mg/kg” value [1] was greater than 846 mg/kg and the responders at 100 µM, 100 µmol/kg [4, 9] was 30%. The responders at 320 µM, 320 µmol/kg [4, 10] was 60%.
In the case of `CC1CC(=O)N(CNC(=O)NCN2C(=O)CC(C)C2C)C1C` (stereo not drawn) [compound 14, 1,3-bis[(4,5-dimethyl-2-oxo-pyrrolidino)methyl]-urea], the “Dose mM/kg - mouse” value [1] was greater than 3 mM/kg, the “Dose mg/kg” value [1] was 930 mg/kg and the responders at 100 µM, 100 µmol/kg [4, 9] was 50%. For the same compound, the minimal effective dose [3, 7] was 10 µmol/kg and the minimal effective dose [3, 8] was 3.1 mg/kg.
For `O=C(NCCCN1CCCC1=O)NCCCN1CCCC1=O` [compound 23, 1,3-bis[3-(2-oxo-pyrrolidino)propyl]-urea], the “Dose mM/kg - mouse” value [1] was greater than 3 mM/kg, the “Dose mg/kg” value [1] was 931.2 mg/kg and the responders at 320 µM, 320 µmol/kg [2, 6] was 50%.
